The values below come from PubChem BioAssay (NCI).

Structures are written as SMILES.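 The compound was tested at five concentrations on cells cultured in 96-well plates, with a 48-hour exposure period. The concentration for 50% growth inhibition is given as GI50. TGI: total growth inhibition.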

Some test systems named below: SF-539 CNS; HOP-62 NSCLC; HOP-92 NSCLC; MDA-MB-435; U251 CNS; SF-295 CNS; NCI-H226 lung; HS 578T breast; SW-620 colon; HCT-116 colon.
Common to all, as to test: NCI anticancer screen, dose series, 48 h

Regarding `CCOC(=O)c1cc2cc3c4c(c2oc1=O)CCCN4CCC3`, the TGI in the test with SF-539 CNS was 58.2 µM; in the test on HOP-62 NSCLC it was more than 100 µM; with HOP-92 NSCLC, 58 µM; in the test with MDA-MB-435 it was 83.5 µM; in the test with U251 CNS, more than 100 µM; with SF-295 CNS it was more than 100 µM. The TGI is 51.3 µM in the test on NCI-H226 lung, 89.2 µM with HS 578T breast, more than 100 µM in the test on SW-620 colon and 79 µM with HCT-116 colon.
`O=C1CC2C(=O)c3ccccc3CC2c2ccccc21` (centres undefined): the TGI in the test with SF-539 CNS was more than 100 µM; with HOP-62 NSCLC it was more than 100 µM; in the test on HOP-92 NSCLC it was more than 100 µM; in the test on MDA-MB-435, 55.3 µM; in the test on U251 CNS, more than 100 µM; in the test on SF-295 CNS it was more than 100 µM. For the same molecule, the TGI with NCI-H226 lung, in the test with HS 578T breast, in the test on SW-620 colon and in the test on HCT-116 colon was more than 100 µM in each case.
Consider `Nc1nonc1-c1nc2cnccc2n1C1CC1`, for which the GI50 is 2.54 µM with SF-539 CNS; 5.33 µM with HOP-62 NSCLC; 0.502 µM in the test with HOP-92 NSCLC; 11.2 µM in the test on MDA-MB-435; 9.09 µM with U251 CNS; 7.38 µM with SF-295 CNS. Further, the GI50 was 0.739 µM in the test on NCI-H226 lung, 1.16 µM in the test with HS 578T breast, 5.42 µM with SW-620 colon and 5.62 µM in the test with HCT-116 colon. Besides, the TGI in the test with SF-539 CNS was 10.1 µM; in the test with HOP-62 NSCLC it was more than 16.8 µM; in the test with HOP-92 NSCLC, more than 25 µM; in the test on MDA-MB-435, more than 25 µM; in the test on U251 CNS, more than 25 µM; in the test on SF-295 CNS, more than 25 µM. In addition, the TGI was more than 14.6 µM with NCI-H226 lung, 9.54 µM in the test with HS 578T breast, more than 25 µM in the test on SW-620 colon and more than 25 µM with HCT-116 colon.
For the molecule `O=c1c2cc(F)ccc2sc2c(N3CCNCC3)nc3ccc(F)cc3c12`, the GI50 in the test with SF-539 CNS was 1.72 µM; in the test on HOP-62 NSCLC, 1.82 µM; in the test on HOP-92 NSCLC, 1.18 µM; in the test with MDA-MB-435, 1.74 µM; with SF-295 CNS, 1.78 µM; in the test on NCI-H226 lung, 1.53 µM. In addition, the GI50 with HS 578T breast is 1.7 µM; with SW-620 colon it was 1.61 µM; with HCT-116 colon it was 1.63 µM. Moreover, the TGI with SF-539 CNS amounted to 3.15 µM; in the test on HOP-62 NSCLC it was 3.85 µM; with HOP-92 NSCLC, 2.52 µM; with MDA-MB-435, 3.2 µM; in the test with SF-295 CNS it was 3.22 µM; in the test on NCI-H226 lung, 3.03 µM. The TGI was 3.6 µM in the test on HS 578T breast, 3.12 µM in the test with SW-620 colon and 3.21 µM in the test with HCT-116 colon.
Take `COc1cccc(/C(C#N)=C/c2nc3c(N4CCOCC4)nc(Cl)nc3n2C)c1`: the GI50 in the test on SF-539 CNS is 1.44 µM; in the test with HOP-62 NSCLC it was 1.6 µM; in the test on HOP-92 NSCLC, 0.453 µM; in the test on MDA-MB-435, 1.25 µM; in the test on U251 CNS, 1.26 µM; with SF-295 CNS, 2.47 µM. Also, the GI50 is 1.56 µM with NCI-H226 lung, 1.59 µM in the test with HS 578T breast, 0.429 µM with SW-620 colon and 0.171 µM in the test with HCT-116 colon. The TGI in the test on SF-539 CNS was found to be 2.79 µM; with HOP-62 NSCLC it was 3.64 µM; with HOP-92 NSCLC it was 2.21 µM; in the test on MDA-MB-435, 2.61 µM; in the test with U251 CNS, 2.66 µM; in the test with SF-295 CNS, 7.88 µM. In addition, the TGI was 3.35 µM in the test with NCI-H226 lung, 5.88 µM with HS 578T breast, 1.7 µM in the test on SW-620 colon and 0.433 µM with HCT-116 colon.
With `NS(=O)(=O)c1ccc(-n2nc3c(c2-c2ccc(Cl)cc2)Cc2ccccc2-3)cc1`, the GI50 in the test on SF-539 CNS is 17.5 µM; with HOP-62 NSCLC, 30.4 µM; with HOP-92 NSCLC, 11.6 µM; in the test on MDA-MB-435 it was 17.8 µM; in the test on U251 CNS, 19.5 µM; in the test with SF-295 CNS, 29.8 µM. The GI50 is 16.8 µM with NCI-H226 lung, 12.1 µM with HS 578T breast, 1.88 µM with SW-620 colon and 4.06 µM in the test on HCT-116 colon. The TGI in the test with SF-539 CNS stood at 31.6 µM; in the test on HOP-62 NSCLC, 49.4 µM; in the test on HOP-92 NSCLC it was 24.5 µM; in the test on MDA-MB-435, 32.6 µM; in the test with U251 CNS, 37.3 µM; with SF-295 CNS it was 82.3 µM. For the same molecule, the TGI is 35.4 µM in the test on NCI-H226 lung, 33 µM with HS 578T breast, 4.48 µM in the test with SW-620 colon and 21.3 µM with HCT-116 colon.
With `C=CCNc1nc2c(s1)C(=O)c1ccccc1C2=O`, the TGI in the test on SF-539 CNS is 16.7 µM; in the test on HOP-62 NSCLC, 26.7 µM; in the test with HOP-92 NSCLC, 21.8 µM; in the test with MDA-MB-435 it was 3.31 µM; in the test with U251 CNS, 20.1 µM; with SF-295 CNS, 28.2 µM. In addition, the TGI with NCI-H226 lung is 40.1 µM; in the test with HS 578T breast, more than 100 µM; with SW-620 colon it was 32.4 µM; in the test on HCT-116 colon, 13.6 µM.
As for `COC(=O)c1cc2c3ccccc3n3c(=O)c4cc5ccc(N(S(=O)(=O)c6ccc(C)cc6)S(=O)(=O)c6ccc(C)cc6)cc5nc4c(n1)c23`, the GI50 is 25.4 µM in the test on SF-539 CNS; 16.1 µM in the test on HOP-62 NSCLC; 12.4 µM in the test with HOP-92 NSCLC; more than 100 µM with MDA-MB-435; 10.1 µM with U251 CNS; 20.5 µM in the test with SF-295 CNS. For the same molecule, the GI50 in the test on NCI-H226 lung is 33.8 µM; in the test on HS 578T breast, 29.3 µM; with SW-620 colon it was more than 100 µM. Further, the TGI with SF-539 CNS was more than 100 µM; with HOP-62 NSCLC it was 45 µM; in the test with HOP-92 NSCLC, 34.3 µM; in the test with MDA-MB-435 it was more than 100 µM; in the test on U251 CNS, 45.2 µM; with SF-295 CNS it was more than 100 µM. Further, the TGI with NCI-H226 lung, in the test with HS 578T breast and in the test with SW-620 colon was more than 100 µM each time.
As for `CC[n+]1oc(C(=O)c2ccc(Cl)cc2)c(-c2ccccc2)c1-c1ccccc1.[Cl][Fe]([Cl])([Cl])[Cl]`, the GI50 in the test on SF-539 CNS is more than 100 µM; with HOP-62 NSCLC, 29.7 µM; in the test on HOP-92 NSCLC, 27.1 µM; with MDA-MB-435, 22.3 µM; in the test with U251 CNS, 6.63 µM; in the test with SF-295 CNS it was 53.1 µM. In addition, the figures for the GI50 with NCI-H226 lung, in the test on HS 578T breast and in the test with SW-620 colon were 75.2 µM, 34.5 µM and more than 100 µM, respectively. Also, the TGI is more than 100 µM in the test with SF-539 CNS; more than 100 µM in the test on HOP-62 NSCLC; 62.9 µM in the test on HOP-92 NSCLC; 80.5 µM with MDA-MB-435; more than 100 µM in the test on U251 CNS; more than 100 µM with SF-295 CNS. Besides, the TGI with NCI-H226 lung, with HS 578T breast and with SW-620 colon was more than 100 µM throughout.
